pIC50: −log10 of the molar value.

Chain of Active Human ERK2 (hERK2) (P28482 whole entry): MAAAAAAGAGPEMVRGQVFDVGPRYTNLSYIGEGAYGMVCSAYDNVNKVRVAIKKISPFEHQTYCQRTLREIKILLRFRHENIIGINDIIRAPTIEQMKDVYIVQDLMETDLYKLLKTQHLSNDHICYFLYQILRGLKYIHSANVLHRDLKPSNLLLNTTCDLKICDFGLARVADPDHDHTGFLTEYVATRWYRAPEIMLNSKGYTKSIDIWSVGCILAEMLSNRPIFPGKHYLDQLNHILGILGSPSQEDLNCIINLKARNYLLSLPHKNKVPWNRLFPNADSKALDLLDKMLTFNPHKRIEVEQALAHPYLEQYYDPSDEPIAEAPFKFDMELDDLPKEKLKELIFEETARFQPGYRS

The target of the assay is Active Human ERK2 (hERK2) (Homo sapiens (Human), UniProt P28482). The experiment in a line: Active Human ERK2 (hERK2) Activity Assay (IMAP-FP). Format: biochemical. Particulars: phosphorylated active hERK2, 30 μM ATP; average; read-out: ERK 2 Human average IC50. In outline:
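Reaction contains 0.5 nM activated hERK2, 900 nM unlabeled plus 80 nM labeled peptide and 30 μM ATP, run 60 min. Quenched with IMAP binding beads in buffer with 24 mM NaCl; fluorescence polarization read after 60 min binding equilibration.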
`CC[C@@H](NC(=O)Nc1cc2[nH]nc(-c3ccnc(C)c3)c2cn1)c1ccc(Cl)cc1` [Example 414]: the negative-log IC50 (pIC50) (as a rule, the IC50 on a negative log10 scale, so that one unit is a factor of ten) was 9.12.
Turning to `COC[C@H](NC(=O)Nc1cc2[nH]nc(-c3ccnc(C)c3)c2cn1)c1ccccn1` [Example 415], the pIC50 is 7.70.
As for `COC[C@@H](NC(=O)Nc1cc2[nH]nc(-c3ccnc(C)c3)c2cn1)c1ccccn1` [Example 416], the negative logarithm of the IC50 (pIC50) was 9.11.
On to `Cc1cc(-c2n[nH]c3cc(NC(=O)NCc4scnc4C)ncc23)ccn1` [Example 418], for which the pIC50 is 8.56.
As to `Cc1cc(-c2n[nH]c3cc(NC(=O)NCc4cc[nH]n4)ncc23)ccn1` [Example 419], the pIC50 was 8.57.
Consider `Cc1cc(-c2n[nH]c3cc(NC(=O)NCc4cn[nH]c4)ncc23)ccn1` [Example 420], for which the negative-log IC50 (pIC50) was 8.59.
On to `Cc1cc(-c2n[nH]c3cc(NC(=O)NCc4ncn[nH]4)ncc23)ccn1` [Example 422], for which the pIC50 is 8.27.
In the case of `Cc1cc(-c2n[nH]c3cc(NC(=O)NCc4cnsc4)ncc23)ccn1` [Example 423] it was 9.23; in that of `Cc1cc(-c2n[nH]c3cc(NC(=O)NCc4ncnn4C)ncc23)ccn1` [Example 424], 8.59; in that of `Cc1cc(-c2n[nH]c3cc(NC(=O)NCc4cnsn4)ncc23)ccn1` [Example 425], 9.49.
In the case of `Cc1cc(-c2n[nH]c3cc(NC(=O)NCc4ncon4)ncc23)ccn1` [Example 426] it was 8.25; in that of `Cc1cc(-c2n[nH]c3cc(NC(=O)NCc4ncc[nH]4)ncc23)ccn1` [Example 427], 8.87.
The figure for `Cc1cc(-c2n[nH]c3cc(NC(=O)NCc4ccns4)ncc23)ccn1` [Example 429] is 8.95; for `Cc1cc(-c2n[nH]c3cc(NC(=O)NCc4c[nH]nn4)ncc23)ccn1` [Example 431] it is 8.60; for `Cc1cc(-c2n[nH]c3cc(NC(=O)NCc4cscn4)ncc23)ccn1` [Example 432] it is 9.13.
On to `Cc1cc(-c2n[nH]c3cc(NC(=O)NCc4ncco4)ncc23)ccn1` [Example 433], for which the pIC50 is 8.53.
The figure for `Cc1cc(-c2n[nH]c3cc(NC(=O)NCc4cnc(C)s4)ncc23)ccn1` [Example 434] is 8.94; for `Cc1cc(-c2n[nH]c3cc(NC(=O)NCc4ccno4)ncc23)ccn1` [Example 435] it is 8.97; for `Cc1cc(-c2n[nH]c3cc(NC(=O)NCc4nccs4)ncc23)ccn1` [Example 436] it is 8.67.
The figure for `Cc1cc(-c2n[nH]c3cc(NC(=O)NCc4cnoc4)ncc23)ccn1` [Example 437] is 8.71; for `Cc1cc(-c2n[nH]c3cc(NC(=O)NCc4nncs4)ncc23)ccn1` [Example 438] it is 8.18; for `Cc1cc(-c2n[nH]c3cc(NC(=O)NCc4ccccc4Cl)ncc23)ccn1` [Example 439] it is 8.89.
The figure for `Cc1cc(-c2n[nH]c3cc(NC(=O)NCc4c(F)cccc4Cl)ncc23)ccn1` [Example 440] is 9.33; for `Cc1cc(-c2n[nH]c3cc(NC(=O)NCc4ccccc4OC(F)F)ncc23)ccn1` [Example 441] it is 9.51.
Regarding `Cc1cc(-c2n[nH]c3cc(NC(=O)NCc4ccccc4F)ncc23)ccn1` [Example 442], the negative logarithm of the IC50 (pIC50) was 9.09.
The figure for `Cc1cc(-c2n[nH]c3cc(NC(=O)NCc4ccc(Cl)cc4Cl)ncc23)ccn1` [Example 443] is 7.93; for `Cc1cc(-c2n[nH]c3cc(NC(=O)NCc4c(C)cccc4Cl)ncc23)ccn1` [Example 444] it is 8.95; for `Cc1cc(-c2n[nH]c3cc(NC(=O)NCc4ccc(C#N)cc4)ncc23)ccn1` [Example 445] it is 8.43.
The figure for `Cc1cc(-c2n[nH]c3cc(NC(=O)NCc4cccnn4)ncc23)ccn1` [Example 446] is 8.48; for `Cc1cc(-c2n[nH]c3cc(NC(=O)NCc4ncccc4F)ncc23)ccn1` [Example 447] it is 8.58.
The figure for `Cc1cc(-c2n[nH]c3cc(NC(=O)NCc4ncccc4Cl)ncc23)ccn1` [Example 448] is 9.08; for `Cc1cc(-c2n[nH]c3cc(NC(=O)NCc4ncc(F)cc4F)ncc23)ccn1` [Example 450] it is 8.72.
Turning to `Cc1cc(-c2n[nH]c3cc(NC(=O)NCCOC(C)C)ncc23)ccn1` [Example 451], the pIC50 is 8.67.
As for `Cc1cc(-c2n[nH]c3cc(NC(=O)N[C@H](C(=O)O)C(C)C)ncc23)ccn1` [Example 452], the negative logarithm of the IC50 (pIC50) was 5.65.
As for `Cc1cc(-c2n[nH]c3cc(NC(=O)NCCOc4ccccc4)ncc23)ccn1` [Example 453], the pIC50 is 8.79.
`Cc1cc(-c2n[nH]c3cc(NC(=O)N[C@@H](C)C(=O)O)ncc23)ccn1` [Example 454]: the pIC50 is 6.63.
For the molecule `COC(=O)[C@H](C)NC(=O)Nc1cc2[nH]nc(-c3ccnc(C)c3)c2cn1` [Example 455], the negative-log IC50 (pIC50) is 6.28.
The figure for `Cc1cc(-c2n[nH]c3cc(NC(=O)N[C@H]4CCOC4=O)ncc23)ccn1` [Example 456] is 6.60; for `COC(=O)C(NC(=O)Nc1cc2[nH]nc(-c3ccnc(C)c3)c2cn1)C(F)(F)F` (centres unmarked) [Example 457] it is 7.51.
In the case of `Cc1cc(-c2n[nH]c3cc(NC(=O)NCC4CCCO4)ncc23)ccn1` (centres unmarked) [Example 458] it was 8.07; in that of `Cc1cc(-c2n[nH]c3cc(NC(=O)NCC4COc5ccccc5O4)ncc23)ccn1` (centres unmarked) [Example 459], 8.56.
The figure for `COC(=O)[C@@H](NC(=O)Nc1cc2[nH]nc(-c3ccnc(C)c3)c2cn1)C(C)C` [Example 460] is 6.80; for `COC(=O)[C@@H](C)NC(=O)Nc1cc2[nH]nc(-c3ccnc(C)c3)c2cn1` [Example 461] it is 7.51.
For the molecule `Cc1cc(-c2n[nH]c3cc(NC(=O)NCC(=O)O)ncc23)ccn1` [Example 462], the pIC50 was 6.45.
In the case of `Cc1cc(-c2n[nH]c3cc(NC(=O)NCC4(C)CCCO4)ncc23)ccn1` (centres unmarked) [Example 463] it was 8.80; in that of `Cc1cc(-c2n[nH]c3cc(NC(=O)NCC4COCCO4)ncc23)ccn1` (centres unmarked) [Example 464], 8.45; in that of `Cc1cc(-c2n[nH]c3cc(NC(=O)NC4COC4)ncc23)ccn1` [Example 465], 6.49.
In the case of `Cc1cc(-c2n[nH]c3cc(NC(=O)NCC4CNC(=O)O4)ncc23)ccn1` (centres unmarked) [Example 466] it was 8.55; in that of `Cc1cc(-c2n[nH]c3cc(NC(=O)NC4COc5ccccc5C4)ncc23)ccn1` (centres unmarked) [Example 467], 8.90; in that of `Cc1cc(-c2n[nH]c3cc(NC(=O)NC4CCCOC4)ncc23)ccn1` (centres unmarked) [Example 468], 8.06.
In the case of `Cc1cc(-c2n[nH]c3cc(NC(=O)NCC4CCCCO4)ncc23)ccn1` (centres unmarked) [Example 469] it was 8.92; in that of `Cc1cc(-c2n[nH]c3cc(NC(=O)NCc4cc(C)on4)ncc23)ccn1` [Example 470], 8.39.
Consider `CCn1cc(CNC(=O)Nc2cc3[nH]nc(-c4ccnc(C)c4)c3cn2)cn1` [Example 471], for which the pIC50 was 7.99.
Consider `COc1cc(CNC(=O)Nc2cc3[nH]nc(-c4ccnc(C)c4)c3cn2)on1` [Example 472], for which the pIC50 is 7.96.
As for `Cc1cc(-c2n[nH]c3cc(NC(=O)NCc4nc(N)cs4)ncc23)ccn1` [Example 473], the negative-log IC50 (pIC50) was 8.57.
As to `Cc1cc(-c2n[nH]c3cc(NC(=O)NCc4nnc(C)s4)ncc23)ccn1` [Example 474], the negative logarithm of the IC50 (pIC50) was 7.47.
